Patent publication US9884813B1, “Pharmaceutically acceptable salts of B-guanidinopropionic acid with improved properties and uses thereof” (Rgenix, Inc., priority 2017, dated 2018)
Values joined by “and” are separate entries in the source; they are usually repeats but may differ in a detail not shown here. Equal values may be shown once. “Also recorded” adds a separate entry of the source.

How the values were obtained:
[1] = Experiments on lyophilized 2:1 fumarate polymorph (Pattern 7C); assay type: physicochemical
Protocol: 1 g of 2:1 β-GPA fumarate was dissolved in 10 mL of water at 50° C. in a round bottom flask. The round bottom flask was placed in the dry ice/acetone cooling bath (−78° C.) until the sample solidified followed by lyophilization for 48 hours. A white solid was obtained which was analyzed by XRPD, DSC and ^1H-NMR. Sample ID: 2162-84-1.
To confirm the above hypothesis the following experiments (Table 25) were performed on the lyophilized sample (Pattern 7C): […]

[2] = Solid form stability under stressed conditions (wet, dry, high humidity) by XRPD; assay type: physicochemical
Protocol: The solid form stability of each salt was studied by XRPD under stressed conditions: wet, dry (45° C. under vacuum) and high humidity (RH >95%).

[3] = Solid form stability at 40° C. and 75% humidity; assay type: physicochemical; details: for solid form stability (XRPD): 40° C. and 75% RH for seven days
Protocol: Solid form stability studies of β-GPA fumarate, succinate, and oxalate were carried out at 40° C. and 75% RH for seven days. Around 30 mg of the salts were placed in 4 mL vials which were placed in a saturated solution of sodium chloride (2 mL) with lids closed at 40° C. […]

[4] = Dynamic vapor sorption (DVS) with XRPD of the post-DVS sample; assay type: physicochemical; details: for solid form by XRPD after the DVS experiment: post DVS sample
Protocol: Samples were analyzed using an Aquadyne DVS-2 gravimetric water sorption analyzer. The relative humidity was adjusted between 2-95% and the weight of the sample was continuously monitored and recorded.
[…]: β-GPA maleate (1:1) Form II, β-GPA fumarate (1:1), β-GPA maleate (2:1), β-GPA succinate (2:1) and β-GPA oxalate (1:1) were analyzed by DVS experiment followed by XRPD analysis of the sample at the end of the experiment.
Sample 2162-64-1 was analyzed by DVS in triplicate and the post DVS samples were characterized by XRPD to identify the form at the end of the experiment.

[5] = Roller compaction feasibility (slugs, capsule fill)
Protocol: Roller compaction feasibility was performed by producing slugs using a single station hand press then carefully hand milling those slugs so that all granules were small enough to pass through a size US 18 mesh. These granules were then filled into size 0 capsules by both the free flow and tamp method. A total of N=5 capsules were filled for each lot for each method. The average net fill weight results are given below in […]. The same issue was not seen when compressing the succinate salt form of β-GPA. Slugs produced around 1500 PSI produced slugs hard enough to be tested for hardness. The resulting slug parameters can be seen in Table 33.

[6] = Compression profile evaluation (tabletability); assay type: physicochemical
Protocol: Compression profiling was also performed on both the free base and the salt form of the API. A standard formulation containing plastic diluent, brittle diluent, disintegrant and lubricant was evaluated at a loading of 25% and 50% API. The diluent level was adjusted accordingly, but the ratio of plastic to brittle filler was set a 1:1. It was decided to use a representative tablet formulation to perform compression profiling to mitigate the cohesion and sticking issues seen in the free base and the salt form during the roller compaction feasibility evaluation. Table 37 details the formulation compositions tested.
These blends were then compressed into 100 mg compacts using 0.25-inch flat faced tooling at increasing compaction pressures. A total of N=3 compacts were produced at each compaction pressure and were measured for weight, thickness and hardness. The compression stresses used were calculated by dividing the force applied to the compact by the surface area of the 0.25 in flat faced tooling. The tensile strength of the compacts was calculated using the equations derived for flat faced tablets. For each formulation, a tabletability (tensile strength vs. compression pressure) was generated. For the purposes of this study the tabletability profile was examined to determine the compaction pressure required in order to produce a tablet of acceptable tensile strength. Historically a tablet with a tensile strength of 2.0 Mpa is sufficient to both withstand friability and to not impact disintegration and dissolution.

Bulk and tapped density = assay type: physicochemical
Protocol: The bulk density of β-GPA oxalate (Pattern 18 B), succinate (Pattern 15A), and fumarate (Pattern 7A) were determined by pouring in a known amount of salt (g) into a measuring cylinder. The volume (Vi) occupied by the salt was recorded and the bulk density (ρB) was determined using equation 1. ρB=g/Vi (1)
The tapped densities of the salts were determined using a Tap density analyzer. A known amount of salt was poured (g) into a measuring cylinder and the initial volume was recorded and tapped using a Tap density analyzer. The final volume (Vf) after tapping was recorded and the tapped density (ρT) was calculated by using equation 2. ρT=g/Vf (2)

[7] = Solid form stability of salts in different solvents (slurry, XRPD); assay type: physicochemical; details: 48 hours, room temperature
Protocol: Three salts were studied for solid form stability in water (disproportionation test), methanol, acetonitrile, and acetone:water (9:1) for 48 hours at room temperature.

[8] = Carr's index and Hausner ratio (predicted flowability); assay type: physicochemical; details: for Carr's index / Hausner ratio: calculated from bulk and tapped volumes; for Flow character: scale of Table 6 (Carr's index)
Description: The flow properties of β-GPA are sub-optimal. The bulk density is 0.389 g/cc and the tapped density is 0.627 g/cc. These measurements can be used to calculate the Carr's index and Hausner ratio for a substance. The Carr's index and Hausner ratio are indicators of flowability of a powder. As known in the art, e.g., as described in Carr R. L. Chem. Eng. 1965, 72, 163-168, the relationship to flowability of a powder to the Carr's index and Hausner ratio is based on the scale shown in Table 6 below.
Carr's index or Carr's compressibility index (C) is an indication of the compressibility of a powder. It can be calculated using the equation below: Carr's index (C)=100(Vi−Vf)/Vi (3) A Carr's index greater than 25 is considered to be an indication of poor flowability while a value below 15 is an indication of good flowability.
The Hausner ratio is a number that is correlated to the flowability of a powder or granular material. It is calculated by using the equation below: Hausner ratio=Vi/Vf (4)

[9] = as above; assay type: physicochemical; details: Table 18, scale of Table 17
[10] = Solid form stability of salts in different solvents (slurry, XRPD); assay type: physicochemical; details: water, 6 hours, room temperature
[11] = Flowability measurement using Hanson Flodex unit; assay type: physicochemical; details: for flow character from the experimental data: summary of density and Flodex measurements
Description: Method: A cylindrical vessel is secured to the stand and above that a funnel is also secured such that the bottom of the funnel is close to the vessel. A powder load of ≈50-60 g is then poured through the funnel into the middle of the cylinder. The lever device is pulled to open the hole in the disk quickly and without vibration. If a powder slowly flows through the small-diameter holes, leaving a cavity shaped like an upside-down, truncated cone, the test is considered positive. If a powder flocculates in bulk and falls abruptly, forming a cylindrical cavity, the test is considered negative. […] If the experiment is negative, the powder is tested again with a disk having a larger hole.

[12] = Dynamic vapor sorption (DVS) with XRPD of the post-DVS sample; assay type: physicochemical; details: relative humidity between 0-95 percent
[13] = Average of 5 slugs, average Compression Force 1600.00 PSI (28.67 MPa)
[14] = slug, Compression Force 1500 PSI, Compression Stress 27 MPa, listed as β-Guanidinopropionic Acid Succinate Salt
[15] = slug, Compression Force 2000 PSI, Compression Stress 36 MPa

For N=C(N)NCCC(=O)O.N=C(N)NCCC(=O)O.O=C(O)/C=C/C(=O)O [Pattern 7C], the “stability of the polymorph” value [1] was “unstable”.
In the case of N=C(N)NCCC(=O)O.N=C(N)NCCC(=O)O.O=C(O)CCC(=O)O [β-GPA succinate (2:1)], the Dry_XRPD pattern ([2]; dry (45° C. under vacuum)) is reported as “Pattern 15A”, the “stability in dry conditions” value ([2]; dry conditions) is reported as “stable” and the Humid_XRPD pattern ([2]; high humidity (RH >95%)) is reported as “Pattern 15A”. For the same compound, the “stability under high humidity conditions” value ([2]; high humidity conditions) was “stable”, the Wet_XRPD pattern ([2]; wet) was “Pattern 15A” and the “solid form stability (XRPD)” value [3] was “retained their original XRPD pattern; also recorded: stable”. For the same compound, the “solid form stability (XRPD)” value ([3]; listed as 2:1 succinate salt) was “stable”, the “solid form by XRPD after the DVS experiment” value (from here on “solid form by XRPD”) [4] was “retained their XRPD” and the “solid form by XRPD” value ([4]; listed as 2:1 succinate salt) was “no form change”. The “solid form by XRPD” value ([4]; listed as 2:1 β-GPA succinate) was “no form change”, the “Calculated Solid Fraction” value [5, 13] was 0.80 and the “Tablet Hardness” value [5, 13] was 4.86 kp. For the same compound, the “Tensile Strength” value [5, 13] was 0.34 MPa, the “Calculated Solid Fraction” value ([5]; slug, Compression Force 1500 PSI, Compression Stress 27 MPa) was 0.79 and the “Tablet Hardness” value [5, 14] was 5.1 kp and 3.7 kp and 4.4 kp and 4.3 kp. For the same compound, the “Tensile Strength” value [5, 14] was 0.35 MPa and 0.25 MPa and 0.30 MPa and 0.29 MPa, the “Calculated Solid Fraction” value [5, 15] was 0.85 and the “Tablet Hardness” value [5, 15] was 6.8 kp. The “Tensile Strength” value [5, 15] was 0.50 MPa, the “compaction force required to produce a tablet of 2.0 Mpa tensile strength” value ([6]; 25% API loading formulation) was 22.7 kN and the “compression stress (compaction pressure) required to produce a tablet of 2.0 Mpa tensile strength” value (shortened to “compression stress”) ([6]; 25% API loading formulation) was 150 Mpa. For the same compound, the “compaction force required to produce a tablet of 2.0 Mpa tensile strength” value ([6]; 50% API loading formulation) was roughly 34.8 kN, the “compression stress” value ([6]; 50% API loading formulation) was roughly 230 Mpa and the Bulk density (Bulk and tapped density) was 0.405 g/cc. For the same compound, the Tapped density (Bulk and tapped density) was 0.472 g/cc, the “XRPD pattern after slurry” value ([7]; acetone:water (9:1)) was “presence of β-GPA” and the “XRPD pattern after slurry” value ([7]; acetonitrile) was “retain its original form”. The “XRPD pattern after slurry” value ([7]; acetonitrile, listed as 2:1 β-GPA succinate) was “retain its XRPD pattern”, the “XRPD pattern after slurry” value ([7]; methanol) was “retain its original form” and the “XRPD pattern after slurry” value ([7]; methanol, listed as 2:1 β-GPA succinate) was “retain its XRPD pattern”. For the same compound, the “Carr's index” value [8] was 14.3, the Hausner ratio [8] was 1.167 and the Flow character ([8]; predicted) was “Good (11-15)”. For the same compound, the Flow character [9] was “Good (11-15)”, the “XRPD pattern after slurry” value [10] was “two peaks from β-GPA” and the “XRPD pattern after slurry” value ([10]; listed as 2:1 β-GPA succinate) was “started showing up peaks from β-GPA”. The “Did solid pass?” value ([11]; Disc pore size 5 mm) was “No”, the “Did solid pass?” value ([11]; Disc pore size 6 mm) was “No” and the “Did solid pass?” value ([11]; Disc pore size 7 mm) was “Yes”. The “Did solid pass?” value ([11]; Disc pore size 8 mm) was “Yes”, the “Did solid pass?” value ([11]; Disc pore size 10 mm) was “Yes” and the “Did solid pass?” value ([11]; Disc pore size 18 mm) was “Yes”. The “Did solid pass?” value ([11]; Disc pore size 20 mm) was “Yes”, the “Did solid pass?” value ([11]; Disc pore size 22 mm) was “Yes” and the “Did solid pass?” value ([11]; Disc pore size 24 mm) was “Yes”. For the same compound, the “flow character from the experimental data” value [11] was “good”.
For N=C(N)NCCC(=O)O [β-GPA, β-Guanidinopropionic acid, reference compound], the degradation ([3]; 40° C. at 75% humidity after 4 weeks) was “No degradation was observed”, the water uptake ([4]; 80% humidity at 25° C.) was roughly 0.3% and the “solid form by XRPD” value [4] was “No change in the solid form”. For the same compound, the “calculated solid fraction of slugs” value ([5]; slugs produced using up to 2000 psi) was 74%, the “compression stress” value ([6]; 25% API loading formulation) was “roughly 235 Mpa” and the “compression stress” value ([6]; 50% API loading formulation) was “incapable of reaching a tablet with 2.0 Mpa”. For the same compound, the Bulk density (Bulk and tapped density) was 0.389 g/cc, the Tapped density (Bulk and tapped density) was 0.627 g/cc and the “Carr's index” value [8] was 37.9. For the same compound, the Hausner ratio [8] was 1.610, the Flow character ([8]; predicted) was “Very poor (32-37)” and the “Flow character by Hausner ratio” value ([8]; predicted, scale of Table 6 (Hausner ratio)) was “Very very poor (>1.60)”. The Flow character [9] was “Very very poor (>38)”, the “moisture absorbed and desorbed” value [12] was “around 0.1%” and the “Did solid pass?” value ([11]; Disc pore size 18 mm) was “No”. For the same compound, the “Did solid pass?” value ([11]; Disc pore size 20 mm) was “No”, the “Did solid pass?” value ([11]; Disc pore size 28 mm) was “No” and the “Did solid pass?” value ([11]; Disc pore size 30 mm) was “No”. The “Did solid pass?” value ([11]; Disc pore size 34 mm) was “Yes” and the “flow character from the experimental data” value [11] was “poor”.
